From EP3290412A1, “HIV-1 NUCLEOCAPSID INHIBITORS” (Università degli Studi di Siena, priority 2016, dated 2018)

Columns and labels:
[1] = molecular target: NC(11-55) (Human immunodeficiency virus type 1, UniProt P12493); assay: NC inhibition assay (NC-induced cTAR DNA destabilization, fluorescence); format: biochemical, HIV-1; details: for inhibition at 100 µM: single point screening, positive = >25% inhibition at 100µM
Outline: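 Doubly labelled cTAR (0.1 µM, Alexa488/Dabcyl) pre-complexed with 1 µM Zn-loaded NC(11-55) for 15 min, then compound added for a further 15 min; run at 20 °C in Tris-HCl pH 7.5, 30 mM NaCl, 0.2 mM MgCl2. Fluorescence read at ex 480/em 520 nm. IC50 taken from dose-response fit of % inhibition of NC-induced fluorescence increase.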

[2] = molecular target: T1, full length (1-55) HIV-1 NCp7 (Human immunodeficiency virus type 1 group M subtype B, UniProt P12493); assay: Electromobility Shift Assay (EMSA), competition for ssDNA binding; details: NCp7 300 nM, M13mp18 ssDNA; positive = >25% inhibition at 100µM
T1 construct: recombinant full length (1-55) HIV-1 NCp7 proteins; made in house
Outline: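 Recombinant NL4-3 NCp7 (300 nM in the pre-mix) was combined with compound in 20 mM Tris-HCl pH 7.4, 2 mM MgCl2, 100 mM NaCl, 1 mM DTT, then M13mp18 ssDNA was added for 25 min at 37 °C. Complexes were run on 1% agarose/0.5x TBE and stained with SybrGold. IC50 is the concentration at which bound ssDNA migrated 50% of the bound–unbound distance (triplicate).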

[3] = tested on: HeLa cells; assay: HeLa Proliferation assay (CellTiter Glo); format: cell-based; details: 72 hours
Protocol: HeLa cells (ATCC® CCL2™) in DMEM (Dulbecco Modified Eagle's Medium) without phenol red, Thermo, 11880, USA + 10% FBS + 1X PenStrep + 1X Gln or HUVEC cells (ATCC® CRL1730™) in EBM-2 (Endothelial Growth Basal Medium, Lonza, CC3156) + EGM-2 SingleQuotsTMSupplements and Growth Factors (Lonza, CC4176) + 1X Penicyllin-Streptomycin (PenStrep, ThermoFisher) + 1X Glutamine, are plated in a 384 well plate (Thermo, 4334-11, USA) to a density of 2000 cells per well and let recover for four hours at 37 °C, 5% CO2 in a humidified atmosphere. After the recovery, compounds are transferred to assay plates as per compound preparation method. Assay plates are then incubated at 37 °C, 5% CO2 in a humidified atmosphere for 72 hours. Cell viability is measured by the CellTiter Glo (Promega, G8080, USA) as per manufacturer instruction.

Row | Compound | IC50 [1] | inhibition at 100 µM [1] | EMSA screening results [2] | Proliferation assay HELA TD50 [3]
1 | O=C(OCCC1CCCCC1)c1nc(-c2ccccn2)nc(O)c1O [Compound 12, 2-cyclohexylethyl 5,6-dihydroxy-2-(pyridin-2-yl)pyrimidine-4-carboxylate] | 57.5 µM | > 25% | Negative | >50 µM
2 | O=C(OC1CCCCC1)c1nc(-c2ccccn2)nc(O)c1O [Compound 13, cyclohexyl 5,6-dihydroxy-2-(pyridin-2-yl)pyrimidine-4-carboxylate] | 237 µM | > 25% | Negative | >50 µM
3 | O=C(OCCCC1CCCCC1)c1nc(-c2ccccn2)nc(O)c1O [Compound 14, 3-cyclohexylpropyl 5,6-dihydroxy-2-(pyridin-2-yl)pyrimidine-4-carboxylate] | 27.5 µM | > 25% | Negative | >50 µM
4 | O=C(OCC1CCCCC1)c1nc(-c2ncccc2Cl)nc(O)c1O [Compound 15, cyclohexylmethyl 2-(3-chloropyridin-2-yl)-5,6-dihydroxypyrimidine-4-carboxylate] | – | > 25% | Positive (A compound showing >25% inhibition when tested at 100µM concentration is considered as "positive") | >50 µM
5 | O=C(NCC1CCCCC1)c1nc(-c2ncccc2Cl)nc(O)c1O [Compound 16, 2-(3-chloropyridin-2-yl)-N-(cyclohexylmethyl)-5,6-dihydroxypyrimidine-4-carboxamide] | – | > 25% | Positive (A compound showing >25% inhibition when tested at 100µM concentration is considered as "positive") | 16.609 µM
6 | CC(OC(=O)c1nc(-c2ccccn2)nc(O)c1O)C1CCCCC1 (centres unmarked) [Compound 17, 1-cyclohexylethyl 5,6-dihydroxy-2-(pyridin-2-yl)pyrimidine-4-carboxylate] | 90 µM | > 25% | Negative | >50 µM
7 | Cc1cccc(-c2nc(O)c(O)c(C(=O)N[C@H](C)C3CCCCC3)n2)n1 [Compound 18, (R)-N-(1-cyclohexylethyl)-5,6-dihydroxy-2-(6-methylpyridin-2-yl)pyrimidine-4-carboxamide] | 20 µM | > 25% | Positive (A compound showing >25% inhibition when tested at 100µM concentration is considered as "positive") | 4.6302 µM
8 | Cc1ccnc(-c2nc(O)c(O)c(C(=O)N[C@H](C)C3CCCCC3)n2)c1 [Compound 19, (R)-N-(1-cyclohexylethyl)-5,6-dihydroxy-2-(4-methylpyridin-2-yl)pyrimidine-4-carboxamide] | 8.5 µM | > 25% | Positive (A compound showing >25% inhibition when tested at 100µM concentration is considered as "positive") | 2.7357 µM
9 | C[C@@H](NC(=O)c1nc(-c2ccc(N)cn2)nc(O)c1O)C1CCCCC1 [Compound 20, (R)-2-(5-aminopyridin-2-yl)-N-(1-cyclohexylethyl)-5,6-dihydroxypyrimidine-4-carboxamide] | 3 µM | > 25% | Positive (A compound showing >25% inhibition when tested at 100µM concentration is considered as "positive") | 0.6864 µM
10 | C[C@@H](NC(=O)c1nc(-c2ccc(C(=O)OCc3ccccc3)cn2)nc(O)c1O)C1CCCCC1 [Compound 21, benzyl (R)-6-(4-((1-cyclohexylethyl)carbamoyl)-5,6-dihydroxypyrimidin-2-yl)nicotinate] | 10 µM | > 25% | Positive (A compound showing >25% inhibition when tested at 100µM concentration is considered as "positive") | 3.9607 µM
11 | C[C@@H](NC(=O)c1nc(-c2ccc3ccccc3n2)nc(O)c1O)C1CCCCC1 [Compound 22, (R)-N-(1-cyclohexylethyl)-5,6-dihydroxy-2-(quinolin-2-yl)pyrimidine-4-carboxamide] | 3 µM | > 25% | Positive (A compound showing >25% inhibition when tested at 100µM concentration is considered as "positive") | 2.8446 µM
12 | Cc1cccnc1-c1nc(O)c(O)c(C(=O)N[C@H](C)C2CCCCC2)n1 [Compound 23, (R)-N-(1-cyclohexylethyl)-5,6-dihydroxy-2-(3-methylpyridin-2-yl)pyrimidine-4-carboxamide] | 20.5 µM | > 25% | Positive (A compound showing >25% inhibition when tested at 100µM concentration is considered as "positive") | 2.3339 µM
13 | O=C(NC1(C2CCCCC2)CC1)c1nc(-c2ccccn2)nc(O)c1O [Compound 24, N-(1-cyclohexylcyclopropyl)-5,6-dihydroxy-2-(pyridin-2-yl)pyrimidine-4-carboxamide] | 22.5 µM | > 25% | Positive (A compound showing >25% inhibition when tested at 100µM concentration is considered as "positive") | 1.5131 µM
14 | C[C@@H](NC(=O)c1nc(-c2cc3ccccc3cn2)nc(O)c1O)C1CCCCC1 [Compound 25, (R)-N-(1-cyclohexylethyl)-5,6-dihydroxy-2-(isoquinolin-3-yl)pyrimidine-4-carboxamide] | 3 µM | > 25% | Positive (A compound showing >25% inhibition when tested at 100µM concentration is considered as "positive") | 1.3934 µM
15 | C[C@@H](NC(=O)c1nc(-c2cc(Cl)ccn2)nc(O)c1O)C1CCCCC1 [Compound 26, (R)-2-(4-chloropyridin-2-yl)-N-(1-cyclohexylethyl)-5,6-dihydroxypyrimidine-4-carboxamide] | 1.5 µM | > 25% | Positive (A compound showing >25% inhibition when tested at 100µM concentration is considered as "positive") | 3.1977 µM
16 | C[C@@H](NC(=O)c1nc(-c2cc(C(F)(F)F)ccn2)nc(O)c1O)C1CCCCC1 [Compound 27, (R)-N-(1-cyclohexylethyl)-5,6-dihydroxy-2-(4-(trifluoromethyl)pyridin-2-yl)pyrimidine-4-carboxamide] | 12.5 µM | > 25% | Positive (A compound showing >25% inhibition when tested at 100µM concentration is considered as "positive") | 5.9753 µM
17 | COc1ccnc(-c2nc(O)c(O)c(C(=O)N[C@H](C)C3CCCCC3)n2)c1 [Compound 28, (R)-N-(1-cyclohexylethyl)-5,6-dihydroxy-2-(4-methoxypyridin-2-yl)pyrimidine-4-carboxamide] | 22 µM | > 25% | Positive (A compound showing >25% inhibition when tested at 100µM concentration is considered as "positive") | 2.8609 µM
18 | C[C@@H](NC(=O)c1nc(-c2nc3ccccc3[nH]2)nc(O)c1O)C1CCCCC1 [Compound 29, (R)-2-(1H-benzo[d]imidazol-2-yl)-N-(1-cyclohexylethyl)-5,6-dihydroxypyrimidine-4-carboxamide] | 2.5 µM | > 25% | Positive (A compound showing >25% inhibition when tested at 100µM concentration is considered as "positive") | 3.3965 µM
19 | C[C@@H](NC(=O)c1nc(-c2ncccc2C(F)(F)F)nc(O)c1O)C1CCCCC1 [Compound 30, (R)-N-(1-cyclohexylethyl)-5,6-dihydroxy-2-(3-(trifluoromethyl)pyridin-2-yl)pyrimidine-4-carboxamide] | – | > 25% | Positive (A compound showing >25% inhibition when tested at 100µM concentration is considered as "positive") | >50 µM
20 | C[C@@H](NC(=O)c1nc(-c2nccc3ccccc23)nc(O)c1O)C1CCCCC1 [Compound 31, (R)-N-(1-cyclohexylethyl)-5,6-dihydroxy-2-(isoquinolin-1-yl)pyrimidine-4-carboxamide] | 3.5 µM | > 25% | Positive (A compound showing >25% inhibition when tested at 100µM concentration is considered as "positive") | 2.0709 µM
